System: FabK
Test: FabK activity assay (crotonoyl-ACP reduction, NADH oxidation monitored at 340 nm)
Type: biochemical, Streptococcus pneumoniae
Conditions: NH4+ at 100 mM; greatest activation
Description: FabK catalyses the reduction of enoyl-ACPs with the concommitant oxidation of NADH. Crotonoyl-ACP can be prepared as described below. The reduction of crotonoyl-ACP to butyryl-ACP can be monitored by following the change in absorbance at 340 nm as NADH is oxidised.
Assays were carried out in Costar 3696 half-area plates in a final assay volume of 150 ul on a Spectramax platereader. Substrates, NADH and crotonoyl ACP, were incubated with FabK enzyme in 100 mM N-[2-acetamido]-2 iminodiacetic acid (ADA), pH 6.5, 100 mM NH4Cl, 4% glycerol at 30° C. and the reaction monitored at 340 nm. This assaying can also be performed using crotonyl CoA, NADPH or an NADH analogue as a substrate.

`N` [NH4^+] was tested. Which “activation of the FabK reaction over the reaction with no monovalent cations” value did it give?
The value was “about 300 fold”.
